Measured values taken from patent publication EP4800015A1, “AZABICYCLO DERIVATIVE AND PREPARATION METHOD THEREFOR, AND USE” (Zhejiang Hisun Pharmaceutical Co., Ltd., priority 2023, dated 2025).

molecular target: T1, recombinant human WRN (Homo sapiens, UniProt Q14191); test: Inhibition of WRN enzyme activity (ATPase), ADP-Glo Kinase Assay; format: biochemical; conditions: WRN protein 5 nM, Flap 0.1 nM, ATP 30 µM
T1 construct: purchased BPS 101264
Summary of the method: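 ATPase activity was measured by ADP-Glo luminescence after a 10-min room-temperature reaction with 30 µM ATP and 0.1 nM Flap26 oligonucleotide substrate. The 5 nM WRN had first been exposed to compound (0.004–1000 nM) for 15 min in pH 7.5 Tris buffer with 2 mM MgCl2. IC50 values came from log-concentration regression against the DMSO control.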

T1 sequence (Q14191 whole entry): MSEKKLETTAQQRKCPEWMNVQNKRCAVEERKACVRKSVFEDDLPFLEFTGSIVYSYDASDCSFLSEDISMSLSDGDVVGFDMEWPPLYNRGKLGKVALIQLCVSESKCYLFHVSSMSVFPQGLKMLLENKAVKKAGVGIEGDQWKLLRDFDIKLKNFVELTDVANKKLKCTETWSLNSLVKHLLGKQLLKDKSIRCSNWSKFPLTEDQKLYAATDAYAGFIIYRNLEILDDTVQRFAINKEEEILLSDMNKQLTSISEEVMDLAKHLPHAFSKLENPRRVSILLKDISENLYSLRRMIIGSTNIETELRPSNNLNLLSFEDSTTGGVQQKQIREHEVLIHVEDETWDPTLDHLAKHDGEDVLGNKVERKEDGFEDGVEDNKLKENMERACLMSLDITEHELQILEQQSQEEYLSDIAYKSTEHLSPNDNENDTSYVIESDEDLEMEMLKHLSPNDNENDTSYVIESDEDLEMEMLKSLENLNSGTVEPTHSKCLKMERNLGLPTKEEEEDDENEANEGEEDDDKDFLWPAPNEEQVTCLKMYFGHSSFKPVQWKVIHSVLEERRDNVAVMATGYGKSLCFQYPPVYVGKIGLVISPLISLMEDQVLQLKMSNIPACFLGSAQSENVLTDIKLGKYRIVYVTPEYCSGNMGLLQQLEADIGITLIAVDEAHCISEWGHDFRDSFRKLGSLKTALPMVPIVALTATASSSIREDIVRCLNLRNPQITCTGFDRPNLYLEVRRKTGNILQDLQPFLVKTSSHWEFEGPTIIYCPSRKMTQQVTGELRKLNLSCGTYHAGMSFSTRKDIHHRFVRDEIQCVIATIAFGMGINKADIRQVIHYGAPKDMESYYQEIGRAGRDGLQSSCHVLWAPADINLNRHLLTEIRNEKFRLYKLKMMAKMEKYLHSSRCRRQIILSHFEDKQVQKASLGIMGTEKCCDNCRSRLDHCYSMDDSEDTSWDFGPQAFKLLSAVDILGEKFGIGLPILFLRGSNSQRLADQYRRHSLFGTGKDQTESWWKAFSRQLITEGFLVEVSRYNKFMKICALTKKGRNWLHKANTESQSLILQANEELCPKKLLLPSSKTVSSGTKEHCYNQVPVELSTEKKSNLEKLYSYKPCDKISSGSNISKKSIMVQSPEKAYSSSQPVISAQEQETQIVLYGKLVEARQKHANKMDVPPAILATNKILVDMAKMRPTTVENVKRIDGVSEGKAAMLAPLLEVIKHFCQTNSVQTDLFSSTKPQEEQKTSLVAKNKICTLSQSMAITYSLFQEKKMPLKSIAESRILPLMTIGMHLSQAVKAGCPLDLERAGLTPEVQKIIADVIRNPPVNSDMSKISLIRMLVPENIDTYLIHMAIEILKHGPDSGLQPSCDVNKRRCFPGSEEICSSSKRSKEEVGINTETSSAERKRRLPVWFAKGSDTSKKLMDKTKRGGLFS

Row | SMILES | IC50 [nM]
1 | CCc1c(N2CCN(C(=O)c3ncnc(C)c3O)CC2)c(=O)n2nc(-c3ccc4cnn(C)c4c3)nc2n1CC(=O)Nc1ccc(C(F)(F)F)cc1Cl [Example 139, N-(2-chloro-4-(trifluoromethyl)phenyl)-2-(5-ethyl-6-(4-(5-hydroxy-6-methylpyrimidine-4-carbonyl)piperazin-1-yl)-2-(1-methyl-1H-indazol-6-yl)-7-oxo-[1,2,4]triazolo[1,5-a]pyrimidin-4(7H)-yl) acetamide] | 1 to 100
2 | CCc1c(N2CCN(C(=O)c3ncccc3O)CC2)c(=O)n2nc(C3=CC4COCC4C3)nc2n1CC(=O)Nc1ccc(S(F)(F)(F)(F)F)cc1 (centres unmarked) [Example 187, 2-(5-ethyl-6-(4-(3-hydroxypicolinoyl)piperazin-1-yl)-7-oxo-2-(3,3a,4,6a-tetrahydro-1H-cyclopenta[c]furan-5-yl)-[1,2,4]triazolo[1,5-a]pyrimidin-4(7H)-yl)-N-(4-(pentafluoro-λ^6-sulfaneyl)phenyl) acetamide] | 1 to 100

same assay, conditions: WRN protein 5 nM, Flap 0.1 nM, ATP 30 µM; read-out: IC50

Row | SMILES | IC50 [nM]
3 | CCc1c(N2CCN(C(=O)c3ncnc(C)c3O)CC2)c(=O)n2nc(-c3ccn4ncnc4c3)nc2n1CC(=O)Nc1ccc(C(F)(F)F)cc1Cl [Example 137, 2-(2-([1,2,4]triazolo[1,5-a]pyridin-7-yl)-5-ethyl-6-(4-(5-hydroxy-6-methylpyrimidine-4-carbonyl)piperazin-1-yl)-7-oxo-[1,2,4]triazolo[1,5-a]pyrimidin-4(7H)-yl)-N-(2-chloro-4-(trifluoromethyl)phenyl)acetamide] | 1 to 100
4 | CCc1c(N2CCN(C(=O)c3ncnc(C)c3O)CC2)c(=O)n2nc(-c3ccc4ccoc4c3)cc2n1CC(=O)Nc1ccc(C(F)(F)F)cc1Cl [Example 57, 2-(2-(benzofuran-6-yl)-5-ethyl-6-(4-(5-hydroxy-6-methylpyrimidine-4-carbonyl)piperazin-1-yl)-7-oxopyrazolo[1,5-a]pyrimidin-4(7H)-yl)-N-(2-chloro-4-(trifluoromethyl)phenyl)acetamide] | 1 to 100
5 | CCc1c(N2CCN(C(=O)c3ncnc(C)c3O)CC2)c(=O)n2nc(C=C3CCCCC3)nc2n1CC(=O)Nc1ccc(C(F)(F)F)cc1Cl [Example 20, N-(2-chloro-4-(trifluoromethyl)phenyl)-2-(2-(cyclohexylidenemethyl)-5-ethyl-6-(4-(5-hydroxy-6-methylpyrimidine-4-carbonyl)piperazin-1-yl)-7-oxo-[1,2,4]triazolo[1,5-a]pyrimidin-4(7H)-yl)ac etamide] | 1 to 100
6 | CCc1c(N2CCN(C(=O)c3ncnc(C)c3O)CC2)c(=O)n2nc(N3CC4(COC4)C3)nc2n1CC(=O)Nc1ccc(C(F)(F)F)cc1Cl [Example 16, N-(2-chloro-4-(trifluoromethyl)phenyl)-2-(5-ethyl-6-(4-(5-hydroxy-6-methylpyrimidine-4-carbonyl)piperazin-1-yl)-7-oxo-2-(2-oxa-6-azaspiro[3.3]heptan-6-yl)-[1,2,4]triazolo[1,5-a]pyrimidin-4(7H)-yl)acetamide] | 1 to 100
7 | Cc1ncnc(C(=O)N2CCN(c3c(C)n(CC(=O)Nc4ccc(C(F)(F)F)cc4Cl)c4nc(C5=CC6CC(=O)CC6C5)nn4c3=O)CC2)c1O (centres unmarked) [Example 32, N-(2-chloro-4-(trifluoromethyl)phenyl)-2-(6-(4-(5-hydroxy-6-methylpyrimidine-4-carbonyl)piperazin-1-yl)-5-methyl-7-oxo-2-(5-oxo-1,3a,4,5,6,6a-hexahydropentalen-2-yl)-[1,2,4]triazolo[1,5-a]pyrimidin-4(7H)-yl)acetamide] | 1 to 100
8 | CCc1c(N2CCN(C(=O)c3ncnc(C)c3O)CC2)c(=O)n2nc(C3=CCCCCC3)nc2n1CC(=O)Nc1ccc(C(F)(F)F)cc1OC [Example 48, 2-(2-(cyclohept-1-en-1-yl)-5-ethyl-6-(4-(5-hydroxy-6-methylpyrimidine-4-carbonyl)piperazin-1-yl)-7-oxo-[1,2,4]triazolo[1,5-a]pyrimidin-4(7H)-yl)-N-(2-methoxy-4-(trifluoromethyl)phenyl)ace tamide] | 1 to 100
9 | CCc1c(N2CCN(C(=O)c3ncnc(C)c3O)CC2)c(=O)n2nc(C3=CC4COCC4C3)nc2n1CC(=O)Nc1ccc(S(F)(F)(F)(F)F)cc1 (centres unmarked) [Example 189, 2-(5-ethyl-6-(4-(5-hydroxy-6-methylpyrimidine-4-carbonyl)piperazin-1-yl)-7-oxo-2-(3,3a,4,6a-tetrahydro-1H-cyclopenta[c]furan-5-yl)-[1,2,4]triazolo[1,5-a]pyrimidin-4(7H)-yl)-N-(4-(pentafluor o-λ^6-sulfaneyl)phenyl)acetamide] | 1 to 100
10 | CCc1c(N2CCN(C(=O)c3ncnc(C)c3O)CC2)c(=O)n2nc(C3CCCCCC3)nc2n1CC(=O)Nc1ccc(C(F)(F)F)cc1Cl [Example 4, N-(2-chloro-4-(trifluoromethyl)phenyl)-2-(2-cycloheptyl-5-ethyl-6-(4-(5-hydroxy-6-methylpyrimidine-4-carbonyl)piperazin-1-yl)-7-oxo-[1,2,4]triazolo[1,5-a]pyrimidin-4(7H)-yl)acetamide] | 1 to 100

The next lines start with the values.

Row | IC50 [nM] | SMILES
11 | 1 to 100 | CCc1c(N2CCN(C(=O)c3ncccc3O)CC2)c(=O)n2nc(C3=CC4(CCC4)C3)nc2n1CC(=O)Nc1ccc(C(F)(F)F)cc1Cl [Example 51, N-(2-chloro-4-(trifluoromethyl)phenyl)-2-(5-ethyl-6-(4-(3-hydroxypicolinoyl)piperazin-1-yl)-7-oxo-2-(spiro[3.3]hept-1-en-2-yl)-[1,2,4]triazolo[1,5-a]pyrimidin-4(7H)-yl)acetamide]
12 | 1 to 100 | CCc1c(N2CCN(C(=O)c3ncnc(C)c3O)CC2)c(=O)n2nc(-c3ccc4c(c3)CCO4)cc2n1CC(=O)Nc1ccc(C(F)(F)F)cc1Cl [Example 82, N-(2-chloro-4-(trifluoromethyl)phenyl)-2-(2-(2,3-dihydrobenzofuran-5-yl)-5-ethyl-6-(4-(5-hydroxy-6-methylpyrimidine-4-carbonyl)piperazin-1-yl)-7-oxopyrazolo[1,5-a]pyrimidin-4(7H)-yl)acet amide]
13 | 1 to 100 | CCc1c(N2CCN(C(=O)c3ccncc3O)CC2)c(=O)n2nc(C3=CC4CC(=O)CC4C3)nc2n1CC(=O)Nc1ccc(C(F)(F)F)cc1Cl (centres unmarked) [Example 14, N-(2-chloro-4-(trifluoromethyl)phenyl)-2-(5-ethyl-6-(4-(3-hydroxyisonicotinoyl)piperazin-1-yl)-7-oxo-2-(5-oxo-1,3a,4,5,6,6a-hexahydropentalen-2-yl)-[1,2,4]triazolo[1,5-a]pyrimidin-4(7H)-yl)a cetamide]
14 | 1 to 100 | CCc1c(N2CCN(C(=O)c3ncnc(C)c3O)CC2)c(=O)n2nc(C3=CC4CNCC4C3)nc2n1CC(=O)Nc1ccc(S(F)(F)(F)(F)F)cc1 (centres unmarked) [Example 146, 2-(5-Ethyl-2-(1,2,3,3a,4,6a-hexahydrocyclopenta[c]pyrrol-5-yl)-6-(4-(5-hydroxy-6-methylpyrimidine-4-carbonyl)piperazin-1-yl)-7-oxo-[1,2,4]triazolo[1,5-a]pyrimidin-4(7H)-yl)-N-(4-(pentafluoro-λ^6-sulfaneyl)phenyl)acetamide]
15 | 1 to 100 | CCc1c(N2CCN(C(=O)c3ncnc(C)c3O)CC2)c(=O)n2nc(-c3ccc4c(c3)CCO4)nc2n1CC(=O)Nc1cc2ccsc2cc1C [Example 168, 2-(2-(2,3-dihydrobenzofuran-5-yl)-5-ethyl-6-(4-(5-hydroxy-6-methylpyrimidine-4-carbonyl)piperazin-1-yl)-7-oxo-[1,2,4]triazolo[1,5-a]pyrimidin-4(7H)-yl)-N-(6-methylbenzo[b]thiophen-5-yl)ac etamide]
16 | 1 to 100 | CCc1c(N2CCN(C(=O)c3ncnc(C)c3O)CC2)c(=O)n2nc(C3=CC4CN(C(C)=O)CC4C3)nc2n1CC(=O)Nc1ccc(C(F)(F)F)cc1Cl (centres unmarked) [Example 145, 2-(2-(2-Acetyl-1,2,3,3a,4,6a-hexahydrocyclopenta[c]pyrrol-5-yl)-5-ethyl-6-(4-(5-hydroxy-6-methylpyrimidine-4-carbonyl)piperazin-1-yl)-7-oxo-[1,2,4]triazolo[1,5-a]pyrimidin-4(7H)-yl)-N-(2-chloro-4-(trifluoromethyl)phenyl)acetamide]
17 | 1 to 100 | CCc1nc2n(CC(=O)Nc3ccc(C(F)(F)F)cc3Cl)c(CC)c(N3CCN(C(=O)c4ncnc(C)c4O)CC3)c(=O)n2n1 [Example 28, N-(2-chloro-4-(trifluoromethyl)phenyl)-2-(2,5-diethyl-6-(4-(5-hydroxy-6-methylpyrimidine-4-carbonyl)piperazin-1-yl)-7-oxo-[1,2,4]triazolo[1,5-a]pyrimidin-4(7H)-yl)acetamide]
18 | 1 to 100 | CCc1c(N2CCN(C(=O)c3ncnc(C)c3O)CC2)c(=O)n2nc(-c3cc4cccnc4s3)nc2n1CC(=O)Nc1ccc(C(F)(F)F)cc1Cl [Example 131, N-(2-chloro-4-(trifluoromethyl)phenyl)-2-(5-ethyl-6-(4-(5-hydroxy-6-methylpyrimidine-4-carbonyl)piperazin-1-yl)-7-oxo-2-(thieno[2,3-b]pyridin-2-yl)-[1,2,4]triazolo[1,5-a]pyrimidin-4(7H)-yl)a cetamide]
19 | 1 to 100 | CCc1c(N2CCN(C(=O)c3ncnc(C)c3O)CC2)c(=O)n2nc(C3=CCCCOC3)nc2n1CC(=O)Nc1ccc(SC(F)(F)F)cc1Cl [Example 165, N-(2-chloro-4-((trifluoromethyl)thio)phenyl)-2-(5-ethyl-6-(4-(5-hydroxy-6-methylpyrimidine-4-carbonyl)piperazin-1-yl)-7-oxo-2-(2,5,6,7-tetrahydrooxepin-3-yl)-[1,2,4]triazolo[1,5-a]pyrimidin-4(7H)-yl)acetamide]
20 | 1 to 100 | CCc1c(N2CCN(C(=O)c3ncnc(C)c3O)CC2)c(=O)n2nc(C(C)C)nc2n1CC(=O)Nc1ccc(C(F)(F)F)cc1Cl [Example 5, N-(2-chloro-4-(trifluoromethyl)phenyl)-2-(5-ethyl-6-(4-(5-hydroxy-6-methylpyrimidine-4-carbonyl)piperazin-1-yl)-2-isopropyl-7-oxo-[1,2,4]triazolo[1,5-a]pyrimidin-4(7H)-yl)acetamide]
